How the values were obtained:
Type in all cases: in vivo
[1] = system: C57BL/6J inbred male mice; experiment: Nocturnal oral melatonin in the drinking water of aging mice: life span and body weight
Experimental: Experiments were initiated in 1985 in which groups of C57BL/6J inbred male mice, aged 575 days (10 mice per group), were given melatonin (10 µg/ml) in the drinking water while the controls received tap water containing the same amount of absolute ethanol used to prepare melatonin stock solution (1 ml ethanol in 10 liters of tap water). The drinking water with or without melatonin was given at 6 p.m. and removed at 8.30 a.m. The drinking water was changed twice weekly. Starting at 5 months after initiation of the nocturnal, oral melatonin treatment, when the mice reached two years of age, a striking difference of body weight and of general body and pelage conditions started to be evident. Although some of the mice died earlier in both groups, the majority of the surviving mice treated with melatonin maintained their optimal body weight until 28 to 33 months of age (35.8± 4 grams) while the untreated mice lost progressively weight and were all dead within 29 months of age. Average body weight of the control mice at 27 months of age was 27.8± 4 grams.
The last melatonin-treated mouse died at 3 years of age. These date though preliminary make it evident that melatonin treatment of aging mice prolonged their life or circa 20 percent (average 6 months longer). The life span of melatonin-treated mice was 931 ± 80 days while that of control mice was 755 ± 81 days (p < 0.01).

T3 and T4 = T3 and T4 by radioimmunoassay in serum of aging mice after chronic night melatonin in drinking water
Source text: It can be seen (Table 1) that chronical treatment with melatonin in the drinking water in aging mice elevates the levels of T3 ([…]) and T4 (tyroxine) in their peripheral blood and corrects thus ageing-related thyroid dysfunction or lowered function.

lipids in blood = experiment: Lipids in blood of aging mice after chronic night melatonin treatment; details: data not shown
Source text: It follows that the increase of the production of thyroid hormones induced in vivo by exogenous melatonin should also be accompanied by an improved degradation of cholesterol, triglycerides and phospholipids and by detoxification effects at the liver level, all these beneficial effects resulting in a slowing down of the aging process.

[2] = C3H/He female, age 23 months, 3 months of melatonin treatment
[3] = C3H/He female, age 23 months, 3 months of melatonin treatment, serum
[4] = C57BL/6 female, age 22 months, 5 months of melatonin treatment

Structure (SMILES): COc1ccc2[nH]cc(CCNC(C)=O)c2c1 [melatonin]
- age at death of the last melatonin-treated mouse ([1]; C57BL/6J male mice): 3 years
- life span ([1]; C57BL/6J male mice, melatonin 10 µg/ml in drinking water 6 p.m. to 8.30 a.m., from 575 days of age, p < 0.01 vs control): 931 ± 80 days
- body weight ([1]; surviving melatonin-treated mice, maintained until 28 to 33 months of age, 10 µg/ml in drinking water at night, started at 575 days of age): 35.8± 4 grams
- average life prolongation (longer) ([1]; versus control mice): 6 months
- prolonged their life ([1]; versus control mice): circa 20%
- T3 change vs untreated (T3 and T4; [2]): +25%
- T4/T3 (T3 and T4; [2]): 42.47
- T4/T3 change vs untreated (T3 and T4; [2]): +18%
- T4 change vs untreated (T3 and T4; [2]): +34%
- T3 (T3 and T4; [3]): 0.664± 0.137
- T4 (T3 and T4; [3]): 28.2± 0.8
- T3 change vs untreated (T3 and T4; [4]): +11%
- T4/T3 (T3 and T4; [4]): 54.27
- T4/T3 change vs untreated (T3 and T4; [4]): +10%
- T4 change vs untreated (T3 and T4; [4]): +20%
- T3 (T3 and T4; C57BL/6 female, age 22 months, 5 months of melatonin treatment, serum): 0.691± 0.077
- aging-related increase of lipids in blood (lipids in blood): corrects the aging-related increase of lipids in blood

From EP0343223B1, “USE OF MELATONIN OR DERIVATIVES THEREOF FOR THE PRODUCTION OF PHARMACEUTICAL COMPOSITIONS EFFECTIVE TO COUNTERACT THE EFFECTS OF AGING” (priority 1987, dated 1989)
